“And” between values parts separate entries of the source, which are not always exact repeats. Equal values may be shown once.
Test system: bovine embryos co-cultured with granulosa cells
Assay: Example 4: Hb (1 or 10 μg/ml) added to mBECM-C, embryos co-cultured with granulosa cells
Assay type: cell-based
Protocol: mBECM containing 10 μM β-mercaptoethanol was used to culture embryos, as described in J. Lim et al., “Roles of growth factors in the development of bovine embryos fertilized in vitro and cultured singly in a defined medium,” Reprod. Fertil. Dev., 8, 1199-1205 (1996). To culture individual 8-cell embryos we used mBECM supplemented with 1 ng/ml platelet derived growth factor type AB (PDGF; Upstate Biotechnology Inc., Lake Placid, N.Y.), 1 ng/ml transforming growth factor-β (TGF; R & D System, Minneapolis, Minn.), 50 ng/ml arachidonic acid (AA; Cayman Chemical Co., Ann Arbor, Mich.), 100 μM glutathione (GSH; Sigma Co.) and 1 mg/ml polyvinyl alcohol (PVA) (mBECM-S). mBECM to which 10% (v/v) FBS was added (mBECM-C) was used for co-culturing inseminated zygotes with CGs and for producing 8-cell embryos. Osmolarity of the medium was maintained within the range of 265-290 mOsm.
The bovine cumulus-oocyte complexes (COCs) used were collected in Madison, Wis. (BOMED, Inc.), and were shipped in 2-ml of maturation medium in a battery powered incubator via overnight express mail service. Oocytes matured during transit and arrived within 24 h after exposure to maturation medium, pre-equilibrated at 39° C. in 5% CO2 in air. At 22-24 h after exposure to the medium, the COCs were inseminated in vitro as described in J. Lim et al., “Intracytoplasmic glutathione concentration and the role of β-mercaptoethanol in preimplantation development of bovine embryos,” Theriogenology, 46, 429-439 (1996). At 18 h post-insemination, COCs were cultured in groups (30-35 embryos) in a 4-well multidish (Nunc, Roskilde, Denmark) containing 0.8-ml of mBECM-C. Embryos were dislodged from CGs at 36-48 h post-insemination.
In Example 1, embryos (83-85 per group) collected 18 h post-insemination were cultured in mBECM-C, to which 0, 0.008, or 0.04 mM SNP was added at 18 or 60 h post-insemination. In Example 2, 8-cell embryos (80 per group) were produced in a co-culture system containing CGs and mBECM-C, and then beginning at 60 h post-insemination were cultured singly in a defined culture medium (mBECM-S), to which 0, 0.0016, 0.008, or 0.04 mM of SNP (S-0501, Sigma Co.) was added. In Example 3 embryos, either uncleaved (n=99) or developed to the 2-cell stage (90), were collected 48 h post-insemination; and cleaved embryos, either developed to the morula stage (69) or degenerate (63) were collected 144 h post-insemination. NO metabolites were then measured in the embryos. In Example 4, three groups of 95 zygotes each were co-cultured with CGs in mBECM-C, to which 0, 1, or 10 μg/ml Hb (bovine, mainly methemoglobin, H-2500, Sigma Co.) was added. […] Inseminated oocytes (104 per group) were co-cultured with CGs in MBECM-C up to 192 h post-insemination; and Hb (1 μg/ml) was added to the medium at 18, 60, or 144 h post-insemination. In Example 6, inseminated oocytes (93 per group) were cultured in the presence or absence of CGs in mBECM-C to which either 0 or 1 μg/ml Hb was added. In Example 7, 8-cell embryos (100 per group), obtained after culture in mBECM-C supplemented with Hb (1 μg/ml), were cultured singly in mBECM-S, with or without Hb.
Oocytes or 8-cell embryos were randomly and equally allocated to each treatment group. In Examples 1, 2, and 4-7, oocytes or embryos that had developed to the 2-cell, 8-cell, >8-cell, 16-cell morula, and blastocyst stages were individually scored ‘1’ (developed) at 48, 60, 96, 120, 144 and 192 h post-insemination, respectively. […] Sums of the scores in each stage of development were evaluated by analysis of variance (ANOVA) using the general linear model (PROC-GLM) in the SAS program software. In Example 3, concentrations of NO metabolites in embryos were subjected to ANOVA. […] Differences were regarded as statistically significant where P values were less than 0.05.

Substance: hemoglobin [Hb]
- Percent of Embryos Developed to 2-cell (Hb 1 μg/ml in mBECM-C): 81%
- Percent of Embryos Developed to 16-cell (Hb 1 μg/ml in mBECM-C): 52%
- Percent of Embryos Developed to >8-cell (Hb 1 μg/ml in mBECM-C): 60%
- Percent of Embryos Developed to Blastocyst (Hb 1 μg/ml in mBECM-C): 34% and 34^b %
- Percent of Embryos Developed to Morula (Hb 1 μg/ml in mBECM-C): 46%
- Percent of Embryos Developed to 2-cell (Hb 10 μg/ml in mBECM-C): 78%
- Percent of Embryos Developed to 16-cell (Hb 10 μg/ml in mBECM-C): 43%
- Percent of Embryos Developed to >8-cell (Hb 10 μg/ml in mBECM-C): 53%
- Percent of Embryos Developed to Blastocyst (Hb 10 μg/ml in mBECM-C): 27% and 27^ab %
- Percent of Embryos Developed to Morula (Hb 10 μg/ml in mBECM-C): 41%
